According to PMC5285354, “Cationic Net Charge and Counter Ion Type as Antimicrobial Activity Determinant Factors of Short Lipopeptides” (Frontiers in Microbiology, 2017):
≈ marks a conversion by molar mass, not a printed value. Read-outs that look alike come from different tables or passages of the source. Where a SMILES comes first, the peptide text is derived from it. The star is where a group is joined. Decanoyl = CCCCCCCCCC(=O)*; Octanoyl = CCCCCCCC(=O)*

Columns and labels:
Type in all cases: cell-based
[1] = test system: Candida albicans (ATCC 10231)
Experimental: (§1) The minimum inhibitory concentration (MIC), minimum bactericidal concentration (MBC) and minimum fungicidal concentration (MFC) were determined according to the procedure recommended by the Clinical Laboratory Standards Institute (CLSI). The following reference strains were tested: Gram-negative E. coli (ATCC 25922), K. pneumoniae (ATCC 700603), P. vulgaris (PCM 2668), P. aeruginosa (ATCC 9027), Gram-positive S. aureus (ATCC 25923), S. epidermidis (PCM 2118), B. subtilis (ATCC 6633), E. faecalis (ATCC 29212) and fungi C. albicans (ATCC 10231), C. tropicalis (PCM 2681), and A. brasiliensis (ATCC 16404). All the microorganisms were from the Polish Collection of Microorganisms (Wroclaw, Poland). MIC was determined using a microbroth dilution method with Mueller-Hinton (MH) broth for bacteria and Sabouraud Dextrose broth for fungi (Becton Dickinson, Le Pont de Claix, France). An initial inoculum of 10^5 cfu/mL was used for bacteria and 10^3 cfu/mL for fungi. Polypropylene 96-well plates (Kartell, Noviglio, Italy) were incubated for 18 h at 37°C for bacteria and for 48 h at 25°C for the tested fungi. MIC (μg/mL) was taken as the lowest concentration of the lipopeptide, at which the observable growth was inhibited. […] The experiments were performed in triplicate on three different days.

[2] = test system: Staphylococcus aureus (ATCC 25923); conditions: ATCC 25923, TFA salt; for MBC Staphylococcus aureus: MIC wells subcultured on Mueller-Hinton II Agar, 24 h 37°C, triplicate; for MIC Staphylococcus aureus: Mueller-Hinton broth, 10^5 cfu/mL, 18 h 37°C, triplicate on three days
Experimental: as §1

[3] = test system: Staphylococcus epidermidis (PCM 2118)
Experimental: as §1

[4] = test system: Aspergillus brasiliensis (ATCC 16404); conditions: ATCC 16404, 48 h
Experimental: as §1

[5] = test system: Enterococcus faecalis (ATCC 29212); conditions: for MBC Enterococcus fecalis: subculture on Mueller-Hinton II Agar, 24 h 37°C
Experimental: as §1

[6] = test system: Pseudomonas aeruginosa (ATCC 9027); conditions: ATCC 9027, TFA salt, triplicate; for MIC Pseudomonas aeruginosa: Mueller-Hinton broth, 10^5 cfu/mL, 18 h 37°C; for MBC Pseudomonas aeruginosa: subculture on Mueller-Hinton II Agar, 24 h 37°C
Experimental: as §1

[7] = test system: Proteus vulgaris (PCM 2668); conditions: PCM 2668, TFA salt, triplicate; for MIC Proteus vulgaris: Mueller-Hinton broth, 10^5 cfu/mL, 18 h 37°C; for MBC Proteus vulgaris: subculture on Mueller-Hinton II Agar, 24 h 37°C
Experimental: as §1

[8] = test system: Escherichia coli (ATCC 25922); conditions: ATCC 25922, TFA salt, triplicate; for MIC Escherichia coli: Mueller-Hinton broth, 10^5 cfu/mL, 18 h 37°C; for MBC Escherichia coli: subculture on Mueller-Hinton II Agar, 24 h 37°C
Experimental: as §1

[9] = test system: Candida tropicalis (PCM 2681); conditions: PCM 2681, 48 h
Experimental: as §1

[10] = test system: Klebsiella pneumoniae (ATCC 700603); conditions: ATCC 700603, TFA salt, triplicate; for MIC Klebsiella pneumoniae: Mueller-Hinton broth, 10^5 cfu/mL, 18 h 37°C; for MBC Klebsiella pneumoniae: subculture on Mueller-Hinton II Agar, 24 h 37°C
Experimental: as §1

[11] = test system: Bacillus subtilis (ATCC 6633)
Experimental: as §1

[12] = PCM 2118, TFA salt, Mueller-Hinton broth, 10^5 cfu/mL, 18 h 37°C, triplicate
[13] = PCM 2118, TFA salt, subculture on Mueller-Hinton II Agar, 24 h 37°C, triplicate
[14] = ATCC 29212, TFA salt, Mueller-Hinton broth, 10^5 cfu/mL, 18 h 37°C, triplicate
[15] = ATCC 29212, TFA salt, triplicate
[16] = ATCC 6633, TFA salt, Mueller-Hinton broth, 10^5 cfu/mL, 18 h 37°C, triplicate
[17] = ATCC 6633, TFA salt, subculture on Mueller-Hinton II Agar, 24 h 37°C, triplicate

MIC Candida albicans ([1]; ATCC 10231, 48 h) [mg/L]	MIC Staphylococcus aureus [2] [mg/L]	MIC Staphylococcus epidermidis [3, 12] [mg/L]	MIC Aspergillus brasiliensis [4] [mg/L]	MIC Enterococcus fecalis [5, 14] [mg/L]	MIC Pseudomonas aeruginosa [6] [mg/L]	MIC Proteus vulgaris [7] [mg/L]	MIC Escherichia coli [8] [mg/L]	MIC Candida tropicalis [9] [mg/L]	MIC Klebsiella pneumoniae [10] [mg/L]	Structure (SMILES)	MFC Candida albicans ([1]; ATCC 10231, 48 h) [mg/L]	MBC Staphylococcus aureus [2] [mg/L]	MBC Staphylococcus epidermidis [3, 13] [mg/L]	MFC Aspergillus brasiliensis [4] [mg/L]	MBC Enterococcus fecalis [5, 15] [mg/L]	MBC Pseudomonas aeruginosa [6] [mg/L]	MBC Proteus vulgaris [7] [mg/L]	MBC Escherichia coli [8] [mg/L]	MFC Candida tropicalis [9] [mg/L]	MBC Klebsiella pneumoniae [10] [mg/L]	further results
1000 (≈ 2.5 mM)	>1000	>1000	1000 (≈ 2.5 mM)	>1000	>2000	>2000	>1000	1000 (≈ 2.5 mM)	>1000	CCCCCCCC(=O)N[C@@H](CCCCN)C(=O)N[C@@H](CCCCN)C(N)=O [C8-KK-NH2]	1000 (≈ 2.5 mM)	>1000	>1000	1000 (≈ 2.5 mM)	>1000	>2000	>2000	>1000	1000 (≈ 2.5 mM)	>1000	MIC Bacillus subtillis [11, 16]: >1000 mg/L; MBC Bacillus subtillis [11, 17]: >1000 mg/L
2000 (≈ 3.05 mM)	>2000	>2000	2000 (≈ 3.05 mM)	–	>2000	>2000	>1000	2000 (≈ 3.05 mM)	>2000	CCCCCCCC(=O)N[C@@H](CCCCN)C(=O)N[C@@H](CCCCN)C(=O)N[C@@H](CCCCN)C(=O)N[C@@H](CCCCN)C(N)=O [C8-KKKK-NH2] (Octanoyl-KKKK-NH2)	2000 (≈ 3.05 mM)	>2000	>2000	2000 (≈ 3.05 mM)	>2000	>2000	>2000	>1000	2000 (≈ 3.05 mM)	>2000	MIC Enterococcus fecalis ([5]; ATCC 29212, 18 h): 2000 mg/L (≈ 3.05 mM); MIC Bacillus subtillis [11, 16]: >2000 mg/L; MBC Bacillus subtillis [11, 17]: >2000 mg/L
2000 (≈ 6.09 mM)	>2000	>2000	2000 (≈ 6.09 mM)	>2000	>2000	>2000	>2000	2000 (≈ 6.09 mM)	>2000	CCCCCCCC(=O)N[C@@H](CCCCN)C(=O)NCC(N)=O [C8-KG-NH2] (Octanoyl-Lys-Gly-NH2)	2000 (≈ 6.09 mM)	>2000	>2000	2000 (≈ 6.09 mM)	>2000	>2000	>2000	>2000	2000 (≈ 6.09 mM)	>2000	MIC Bacillus subtillis [11, 16]: >2000 mg/L; MBC Bacillus subtillis [11, 17]: >2000 mg/L
2000 (≈ 3.89 mM)	>2000	>2000	2000 (≈ 3.89 mM)	>2000	>2000	>2000	>2000	2000 (≈ 3.89 mM)	>2000	CCCCCCCC(=O)N[C@@H](CCCCN)C(=O)NCC(=O)N[C@@H](CCCCN)C(=O)NCC(N)=O [C8-KGKG-NH2] (Octanoyl-KGKG-NH2)	2000 (≈ 3.89 mM)	>2000	>2000	2000 (≈ 3.89 mM)	>2000	>2000	>2000	>2000	2000 (≈ 3.89 mM)	>2000	MIC Bacillus subtillis [11, 16]: >2000 mg/L; MBC Bacillus subtillis [11, 17]: >2000 mg/L
2000 (≈ 3.6 mM)	>2000	–	1000 (≈ 1.8 mM)	>2000	>2000	>2000	>2000	2000 (≈ 3.6 mM)	>2000	CCCCCCCCCC(=O)N[C@@H](CCCCN)C(=O)N[C@@H](CCCCN)C(=O)N[C@@H](CCCCN)C(N)=O [C10-KKK-NH2]	2000 (≈ 3.6 mM)	>2000	–	2000 (≈ 3.6 mM)	>2000	>2000	>2000	>2000	2000 (≈ 3.6 mM)	>2000	MIC Staphylococcus epidermidis ([3]; PCM 2118, 18 h): 128 mg/L (≈ 0.23 mM); MBC Staphylococcus epidermidis ([3]; PCM 2118, 24 h): 256 mg/L (≈ 0.461 mM); MIC Bacillus subtillis ([11]; ATCC 6633, 18 h): 128 mg/L (≈ 0.23 mM); MBC Bacillus subtillis ([11]; ATCC 6633, 24 h): 256 mg/L (≈ 0.461 mM)
–	>2000	–	2000 (≈ 2.92 mM)	>2000	>2000	>2000	>2000	2000 (≈ 2.92 mM)	>2000	CCCCCCCCCC(=O)N[C@@H](CCCCN)C(=O)N[C@@H](CCCCN)C(=O)N[C@@H](CCCCN)C(=O)N[C@@H](CCCCN)C(N)=O [C10-KKKK-NH2] (Decanoyl-KKKK-NH2)	–	>2000	–	2000 (≈ 2.92 mM)	>2000	>2000	>2000	>2000	2000 (≈ 2.92 mM)	>2000	MIC Candida albicans ([1]; ATCC 10231, TFA salt, Sabouraud Dextrose broth, 10^3 cfu/mL, 48 h 25°C, triplicate): >2000 mg/L; MFC Candida albicans ([1]; ATCC 10231, TFA salt, subculture on Sabouraud 2% Glucose Agar, 48 h 25°C, triplicate): >2000 mg/L; MIC Staphylococcus epidermidis ([3]; PCM 2118, 18 h): 64 mg/L (≈ 0.0936 mM); MBC Staphylococcus epidermidis ([3]; PCM 2118, 24 h): 128 mg/L (≈ 0.187 mM); MIC Bacillus subtillis ([11]; ATCC 6633, 18 h): 128 mg/L (≈ 0.187 mM); MBC Bacillus subtillis ([11]; ATCC 6633, 24 h): 128 mg/L (≈ 0.187 mM)
